Data as given in patent US8282909B2, “Pharmaceutical composition for topical application of poorly soluble compounds” (Intendis GmbH, priority 2007, dated 2012).

Test: Solubility of the active substance in solvents and vehicles
Assay type: physicochemical
Source text: Topically administered active substances are mainly used to treat the redness, swelling, itching and discomfort of psoriasis, atopic dermatitis and other pathologies of the skin. […] Glucocorticosteroids, steroids, calcineurin inhibitors, vitamin D analoques, retinoids, immunosuppressants, antimycotics, antiinfectives, estrogens, androgens, fumaric acid esters are typical drug classes for topical administration with such low water solubility. Other examples for such poorly soluble compounds are provided e.g. in WO 03/082827 or WO 2006/050998. One example is the non-steroidal active substance having the chemical name (R)-1,1,1-Trifluoro-4-(5-fluoro-2,3-dihydrobenzofuran-7-yl)-4-methyl-2-{[(2-methyl-5-quinolyl)amino]methyl}pentan-2-ol, the empirical formula of which is C25H26F4N2O2, having a molecular weight of 462.5. This is the compound according to example 1 of WO 2006/050998 (hereinafter Ex1/998).

Cc1ccc2c(NC[C@](O)(CC(C)(C)c3cc(F)cc4c3OCC4)C(F)(F)F)cccc2n1 [Ex1/998, (R)-1,1,1-Trifluoro-4-(5-fluoro-2,3-dihydrobenzofuran-7-yl)-4-methyl-2-{[(2-methyl-5-quinolyl)amino]methyl}pentan-2-ol]
solubility in ethyl alcohol (ethyl alcohol): moderately soluble | solubility in hexane (hexane): only slightly soluble | solubility in standard cream and ointment vehicles (vehicles for topical administration, such as petrolatum and mineral oils): very poor solubility | solubility in water (water): insoluble
